Test results taken from patent US20020042054A1, “Vigilance nucleic acids and related diagnostic, screening and therapeutic methods” (priority 1999, published 2002).

How the values were obtained:
Drosophila [1] = type: in vivo, Drosophila melanogaster
Experimental: In order to monitor fly behavior, five-day old virgin female Canton-S Drosophila melanogaster were cultured at 25° C., 50-60% humidity, 12 hr:12 hr light:dark cycle, on brewer's yeast, dark corn syrup and agar food, following procedures modified from J. Bennett and D. L. van Dyke, Dros. Inform. Serv. 46:160 (1971). Continuous, high-resolution measurement of fly behavior was achieved using an ultrasound activity monitoring system shown in FIG. 1A. Briefly, a 44 kHz standing wave was passed across an independent enclosure containing a single fly. An integrated circuit sampled a portion of each wave as a function of the transmit signal and compared it to the output from the receive signal for the same time-window. When the fly moved its mass within the field, it perturbed the standing wave and the resulting difference was counted as a movement. The output was sampled by a PC at 200 Hz, the data were summed in 2-sec bins and stored for later processing. This system detects very small movements in Drosophila's behavioral repertoire, including fine movements of the head, wings, and limbs.
To monitor rest-activity patterns in large numbers of flies, an infrared Drosophila Activity Monitoring System was used (Trikinetics; described in M. Hamblen et al., J. Neurogen. 3:249 (1986)). To validate the system, flies were visually monitored for a total of 17.75 h (n=7). The number of times the fly crossed the infrared beam was counted in 5-minute bins.
Drugs (caffeine or hydroxyzine) dissolved in food were continuously available to flies beginning in the final hour of the light period.
The increase in rest was not associated with a general impairment of fly behavior. The activity per waking minute was unchanged during the dark period (both during the first hour and the subsequent hours). The total amount of activity during the light period was also unchanged. Furthermore, responsiveness to arousing stimuli was preserved.

Drosophila [2] = assay: Responsiveness to arousing stimuli in flies given drug; set-up: species or system Drosophila melanogaster; details: in vivo
Experimental: In order to determine whether periods of rest are associated with increased arousal thresholds, flies were subjected to vibratory stimuli of increasing intensity (0.05 g, 0.1 g, and 6 g). In these experiments, flies were placed in glass tubes (65 mm in length, 5 mm I.D.) maintained on a hard plastic platform above a Grass speaker. The output of the speaker was controlled via a Beckman signal generator and the resulting vibration of the platform was measured with an accelerometer. Each fly received a stimulus each hour (total of 8 stimuli) of constant intensity. The behavioral state at the time of stimulus delivery and the ensuing response were videotaped and scored off-line.

Drosophila [3] = assay: Grooming control for validating the infrared system: dusting flies; type: in vivo, Drosophila melanogaster; details: flies dusted with the substance
Experimental: Additional controls were used to validate the infrared system. […] It was determined that food deprivation for 1 day increased waking by 50% in Drosophila.

Cn1c(=O)c2c(ncn2C)n(C)c1=O [caffeine]
motor activity (Drosophila [1]; drug in food from the final hour of the light period, n=36/dose): increased
amount of rest during the dark period (Drosophila [1]; drug in food from the final hour of the light period, n=36/dose, p<0.0001, FIG. 3C): decreased in a dose-dependent fashion

OCCOCCN1CCN(C(c2ccccc2)c2ccc(Cl)cc2)CC1 (centres unmarked) [hydroxyzine]
responsiveness to arousing stimuli (Drosophila [2]): preserved
rest during the first hour of the dark period (Drosophila [1]; drug in food from the final hour of the light period, n=40/dose, FIG. 3D): increased in a dose-dependent manner
latency to first dark period rest (Drosophila [1]; drug in food from the final hour of the light period, n=40/dose, FIG. 3E): decreased
total amount of activity during the light period (Drosophila [1]; in vivo): unchanged

Reactive Yellow
increase in grooming behavior (Drosophila [3]): 72%
number of infrared crossings (Drosophila [3]): did not reduce
